In patent US10208067B2, “Compounds for treating spinal muscular atrophy” (Hoffmann-La Roche Inc., priority 2015, dated 2019):

What was measured:
[1] = tested on: full length SMN2 minigene mRNA (HEK293H cells stably transfected with SMN2-A minigene); experiment: RT-qPCR assay for SMN2 minigene pre-mRNA splicing in cultured cells; assay type: cell-based; conditions: Homo sapiens, HEK293-H, Table 3 (title: production of full length SMN2 minigene mRNA), 24 hours, read-out: EC1.5x SMN protein
[2] = tested on: SMN protein in SMA patient fibroblast cells (GM03813); experiment: SMN protein assay (HTRF) in cultured cells; assay type: cell-based; conditions: Homo sapiens, SMA Type 1 patient fibroblasts, 48 hours; for EC (1.5-fold): concentration producing 1.5 times SMN protein vs vehicle, read-out: EC1.5x SMN protein; for maximal fold induction: relative to vehicle control, read-out: max. fold increase of SMN protein
Experimental: The SMN HTRF (homogeneous time resolved fluorescence) assay is used to quantify the level of SMN protein in SMA patient fibroblast cells treated with test compounds. Materials used and respective sources are listed below in Table 4.
Cells are thawed and cultured in DMEM-10% FBS for 72 hours. Cells are trypsinized, counted and re-suspended to a concentration of 25,000 cells/mL in DMEM-10% FBS. The cell suspensions are plated at 5,000 cells per well in a 96 well microtiter plate and incubated for […]. […] 1 μL of test compound solution is transferred to cell-containing wells and cells are incubated for 48 hours in a cell culture incubator (37° C., 5% CO2, 100% relative humidity). Triplicate samples are set up for each test compound concentration. After 48 hours, the supernatant is removed from the wells and 25 μL of the RIPA lysis buffer, containing protease inhibitors, is added to the wells and incubated with shaking at room temperature for 1 hour. 25 μL of the diluent is added and then 35 μL of the resulting lysate is transferred to a 384-well plate, where each well contains 5 μL of the antibody solution (1:100 dilution of anti-SMN d2 and anti-SMN cryptate in SMN reconstitution buffer). The plate is centrifuged for 1 minute to bring the solution to the bottom of the wells, then incubated overnight at room temperature. Fluorescence for each well of the plate at 665 nm and 620 nm is measured on an EnVision multilabel plate reader (Perkin-Elmer).
The normalized fluorescence signal is calculated for each sample, Blank and vehicle control well by dividing the signal at 665 nm by the signal at 620 nm. Normalizing the signal accounts for possible fluorescence quenching due to the matrix effect of the lysate. The ΔF value (a measurement of SMN protein abundance as a percent value) for each sample well is calculated by subtracting the normalized average fluorescence for the Blank control wells from the normalized fluorescence for each sample well, then dividing this difference by the normalized average fluorescence for the Blank control wells and multiplying the resulting value by 100. The ΔF value for each sample well represents the SMN protein abundance from test compound-treated samples. The ΔF value for each sample well is divided by the ΔF value for the vehicle control wells to calculate the fold increase in SMN protein abundance relative to the vehicle control. Table 5 provides EC1-5× concentrations for SMN protein expression that was obtained from the 7-point concentration data generated according to the above procedure for particular compounds of the present invention.
Table 6 provides the maximum fold increase of SMN protein that was obtained from the 7-point concentration data generated according to the above procedure for particular compounds of the present invention

Compound | EC (1.5-fold) [1] [µM] | EC (1.5-fold) [2] [µM] | maximal fold induction [2]
Cc1nc2ncc(-c3cc(=O)n4cc(N5CCN[C@H](C)C5)ccc4n3)cn2n1 [Example 24, 7-[(3R)-3-methylpiperazin-1-yl]-2-(2-methyl-[1,2,4]triazolo[1,5-a]pyrimidin-6-yl)pyrido[1,2-a]pyrimidin-4-one] | 0.0348 | 0.121 | 1.87
Cc1nc2ccc(-c3cc(=O)n4cc(N5CCCN(C)CC5)cc(C)c4n3)nn2n1 [Example 25, 9-methyl-7-(4-methyl-1,4-diazepan-1-yl)-2-(2-methyl-[1,2,4]triazolo[1,5-b]pyridazin-6-yl)pyrido[1,2-a]pyrimidin-4-one] | 0.0103 | 0.226 | 1.89
Cc1nc2ccc(-c3cc(=O)n4cc(N5C[C@@H](C)N[C@@H](C)C5)cc(C)c4n3)nn2n1 [Example 26, 7-[(3R,5S)-3,5-dimethylpiperazin-1-yl]-9-methyl-2-(2-methyl-[1,2,4]triazolo[1,5-b]pyridazin-6-yl)pyrido[1,2-a]pyrimidin-4-one] | 0.0483 | 0.225 | 1.88
Cc1nc2ccc(-c3cc(=O)n4cc(N5CCN(C)CC5)cc(C)c4n3)nn2n1 [Example 27, 9-methyl-7-(4-methylpiperazin-1-yl)-2-(2-methyl-[1,2,4]triazolo[1,5-b]pyridazin-6-yl)pyrido[1,2-a]pyrimidin-4-one] | 0.014 | 0.0347 | 1.74
Cc1nc2ccc(-c3cc(=O)n4cc(N5CCNC(C)(C)C5)cc(C)c4n3)nn2n1 [Example 28, 7-(3,3-dimethylpiperazin-1-yl)-9-methyl-2-(2-methyl-[1,2,4]triazolo[1,5-b]pyridazin-6-yl)pyrido[1,2-a]pyrimidin-4-one] | 0.0096 | 0.0353 | 1.79
Cc1nc2ccc(-c3cc(=O)n4cc(N5C[C@H]6CN(C)C[C@H]6C5)cc(C)c4n3)nn2n1 [Example 29, 7-[(3aS,6aR)-2-methyl-1,3,3a,4,6,6a-hexahydropyrrolo[3,4-c]pyrrol-5-yl]-9-methyl-2-(2-methyl-[1,2,4]triazolo[1,5-b]pyridazin-6-yl)pyrido[1,2-a]pyrimidin-4-one] | 0.0008 | 0.0077 | 1.77
Cc1nc2ccc(-c3cc(=O)n4cc(N5CC[C@@H](N(C)C)C5)cc(C)c4n3)nn2n1 [Example 30, 7-[(3R)-3-(dimethylamino)pyrrolidin-1-yl]-9-methyl-2-(2-methyl-[1,2,4]triazolo[1,5-b]pyridazin-6-yl)pyrido[1,2-a]pyrimidin-4-one] | 0.0065 | 0.0279 | 1.98
Cc1nc2ccc(-c3cc(=O)n4cc(N5CCN(C6COC6)CC5)cc(C)c4n3)nn2n1 [Example 31, 9-methyl-7-[4-(oxetan-3-yl)piperazin-1-yl]-2-(2-methyl-[1,2,4]triazolo[1,5-b]pyridazin-6-yl)pyrido[1,2-a]pyrimidin-4-one] | 0.13 | 1.31 | 1.75
CCN1CCN(c2cc(C)c3nc(-c4ccc5nc(C)nn5n4)cc(=O)n3c2)CC1 [Example 32, 7-(4-ethylpiperazin-1-yl)-9-methyl-2-(2-methyl-[1,2,4]triazolo[1,5-b]pyridazin-6-yl)pyrido[1,2-a]pyrimidin-4-one] | 0.0038 | 0.0725 | 1.97
Cc1nc2ccc(-c3cc(=O)n4cc(N5CC6CN(C)CC6C5)ccc4n3)nn2n1 (stereo not drawn) [Example 33, 7-(2-methyl-1,3,3a,4,6,6a-hexahydropyrrolo[3,4-c]pyrrol-5-yl)-2-(2-methyl-[1,2,4]triazolo[1,5-b]pyridazin-6-yl)pyrido[1,2-a]pyrimidin-4-one] | 0.0038 | 0.0151 | 1.67
Cc1nc2ccc(-c3cc(=O)n4cc(N5CCN6CCC[C@@H]6C5)cc(C)c4n3)nn2n1 [Example 34, 7-[(8aR)-3,4,6,7,8,8a-hexahydro-1H-pyrrolo[1,2-a]pyrazin-2-yl]-9-methyl-2-(2-methyl-[1,2,4]triazolo[1,5-b]pyridazin-6-yl)pyrido[1,2-a]pyrimidin-4-one] | 0.0028 | 0.0191 | 1.8
Cc1nc2ccc(-c3cc(=O)n4cc(N5CC6(CCNCC6)C5)cc(C)c4n3)nn2n1 [Example 35, 7-(2,7-diazaspiro[3.5]nonan-2-yl)-9-methyl-2-(2-methyl-[1,2,4]triazolo[1,5-b]pyridazin-6-yl)pyrido[1,2-a]pyrimidin-4-one] | 0.0022 | 0.0082 | 1.9
Cc1nc2ccc(-c3cc(=O)n4cc(N5CCN6CCC[C@@H]6C5)ccc4n3)nn2n1 [Example 36, 7-[(8aR)-3,4,6,7,8,8a-hexahydro-1H-pyrrolo[1,2-a]pyrazin-2-yl]-2-(2-methyl-[1,2,4]triazolo[1,5-b]pyridazin-6-yl)pyrido[1,2-a]pyrimidin-4-one] | 0.0158 | 0.0997 | 1.92
Cc1nc2ccc(-c3cc(=O)n4cc(N5C[C@H](C)N[C@@H](C)C5)cc(C)c4n3)nn2n1 [Example 37, 7-[(3S,5S)-3,5-dimethylpiperazin-1-yl]-9-methyl-2-(2-methyl-[1,2,4]triazolo[1,5-b]pyridazin-6-yl)pyrido[1,2-a]pyrimidin-4-one] | 0.0026 | 0.0337 | 1.78
Cc1nc2ccc(-c3cc(=O)n4cc(N5CC6(CCNCC6)C5)ccc4n3)nn2n1 [Example 38, 7-(2,7-diazaspiro[3.5]nonan-2-yl)-2-(2-methyl-[1,2,4]triazolo[1,5-b]pyridazin-6-yl)pyrido[1,2-a]pyrimidin-4-one] | 0.002 | 0.0199 | 1.69
Cc1nc2ccc(-c3cc(=O)n4cc(N5CCN(C)CC5)ccc4n3)nn2n1 [Example 39, 7-(4-methylpiperazin-1-yl)-2-(2-methyl-[1,2,4]triazolo[1,5-b]pyridazin-6-yl)pyrido[1,2-a]pyrimidin-4-one] | 0.0272 | 0.09 | 1.74
Cc1nc2ccc(-c3cc(=O)n4cc(N5CCN[C@H](C)C5)cc(C)c4n3)nn2n1 [Example 40, 9-methyl-7-[(3R)-3-methylpiperazin-1-yl]-2-(2-methyl-[1,2,4]triazolo[1,5-b]pyridazin-6-yl)pyrido[1,2-a]pyrimidin-4-one] | 0.0088 | 0.0148 | 2.08
Cc1nc2ccc(-c3cc(=O)n4cc(N5CC[C@@H](N(C)C)C5)ccc4n3)nn2n1 [Example 41, 7-[(3R)-3-(dimethylamino)pyrrolidin-1-yl]-2-(2-methyl-[1,2,4]triazolo[1,5-b]pyridazin-6-yl)pyrido[1,2-a]pyrimidin-4-one] | 0.163 | 0.207 | 1.75
Cc1nc2ccc(-c3cc(=O)n4cc(N5C[C@H](C)N[C@@H](C)C5)ccc4n3)nn2n1 [Example 42, 7-[(3S,5S)-3,5-dimethylpiperazin-1-yl]-2-(2-methyl-[1,2,4]triazolo[1,5-b]pyridazin-6-yl)pyrido[1,2-a]pyrimidin-4-one] | 0.0083 | 0.0629 | 1.81
CCN1CCN(c2ccc3nc(-c4ccc5nc(C)nn5n4)cc(=O)n3c2)CC1 [Example 43, 7-(4-ethylpiperazin-1-yl)-2-(2-methyl-[1,2,4]triazolo[1,5-b]pyridazin-6-yl)pyrido[1,2-a]pyrimidin-4-one] | 0.0328 | 0.0562 | 2.02
Cc1nc2ccc(-c3cc(=O)n4cc(N5CCNC6(CC6)C5)ccc4n3)nn2n1 [Example 44, 7-(4,7-diazaspiro[2.5]octan-7-yl)-2-(2-methyl-[1,2,4]triazolo[1,5-b]pyridazin-6-yl)pyrido[1,2-a]pyrimidin-4-one] | 0.0578 | 0.265 | 2.02
